The values below come from patent US20240018161A1, “MODULATORS OF CYSTIC FIBROSIS TRANSMEMBRANE CONDUCTANCE REGULATOR” (VERTEX PHARMACEUTICALS INCORPORATED, priority 2020, published 2024).

Molecules are shown by their SMILES. Read-outs that look alike come from different tables or passages of the source.

A word on the EC50: it is the concentration giving half of the maximal effect.

For data set [1] the following is noted: 13-membered ring.
The target of data set [2] is CFTR-mediated chloride transport in human intestinal epithelial enteroid cells (Homo sapiens, UniProt P13569). The data set is described as follows: Membrane potential dye, Enteroid Assay B. Type of data set: cell-based. As to conditions: Enteroid Assay B; for EC50: read-out: Ent. B EC50. The procedure:
Base medium (ADF+++) consisted of Advanced DMEM/Ham's F12, 2 mM Glutamax, 10 mM HEPES, […] penicillin/streptomycin.
Bath 1 Buffer consisted of 1 mM MgCl2, 160 mM NaCl, 4.5 mM KCl, 10 mM HEPES, 10 mM Glucose, 2 mM CaCl2.
Chloride Free Buffer consisted of 1 mM Magnesium Gluconate, 2 mM Calcium Gluconate, 4.5 mM Potassium Gluconate, 160 mM Sodium Gluconate, 10 mM HEPES, 10 mM Glucose.
Bath1 Dye Solution consisted of Bath 1 Buffer, 0.04% Pluronic F127, 20 μM Methyl Oxonol, 30 μM CaCCinh-A01, 30 μM Chicago Sky Blue.
Chloride Free Dye Solution consisted of Chloride Free Buffer, 0.04% Pluronic F127, 20 μM Methyl Oxonol, 30 μM CaCCinh-A01, 30 μM Chicago Sky Blue.
3. Enteroid Cell Harvesting and Seeding
Cells were recovered in cell recovery solution, collected by centrifugation at 650 rpm for 5 min at 4° C., resuspended in TryPLE and incubated for 5 min at 37° C. Cells were then collected by centrifugation at 650 rpm for 5 min at 4° C. and resuspended in IEMM containing 10 μM ROCK inhibitor (RI).
5. Membrane Potential Dye, Enteroid Assay B
Briefly, cells were washed 5 times in Bath 1 Buffer. Bath 1 Dye Solution was added and the cells were incubated for 25 min at room temperature. Following dye incubation, cells were washed 3 times in Chloride Free Dye Solution. Chloride transport was initiated by addition of Chloride Free Dye Stimulation Solution and the fluorescence signal was read for 15 min.

Setting [3] is: from Cc1cccc(C)c1-c1cc(OC2CCCC(c3ncc(OC(C)C)cn3)N[C@@H]2CC(C)C)nc(NS(=O)(=O)c2cccc(C(=O)O)c2)n1, amide bond, CDMT/NMM, DMF, 7.3 mM, 60.0 h.

Sequence of CFTR-mediated chloride transport in human intestinal epithelial enteroid cells (P13569 with tags, fused parts or gaps DEL508-508): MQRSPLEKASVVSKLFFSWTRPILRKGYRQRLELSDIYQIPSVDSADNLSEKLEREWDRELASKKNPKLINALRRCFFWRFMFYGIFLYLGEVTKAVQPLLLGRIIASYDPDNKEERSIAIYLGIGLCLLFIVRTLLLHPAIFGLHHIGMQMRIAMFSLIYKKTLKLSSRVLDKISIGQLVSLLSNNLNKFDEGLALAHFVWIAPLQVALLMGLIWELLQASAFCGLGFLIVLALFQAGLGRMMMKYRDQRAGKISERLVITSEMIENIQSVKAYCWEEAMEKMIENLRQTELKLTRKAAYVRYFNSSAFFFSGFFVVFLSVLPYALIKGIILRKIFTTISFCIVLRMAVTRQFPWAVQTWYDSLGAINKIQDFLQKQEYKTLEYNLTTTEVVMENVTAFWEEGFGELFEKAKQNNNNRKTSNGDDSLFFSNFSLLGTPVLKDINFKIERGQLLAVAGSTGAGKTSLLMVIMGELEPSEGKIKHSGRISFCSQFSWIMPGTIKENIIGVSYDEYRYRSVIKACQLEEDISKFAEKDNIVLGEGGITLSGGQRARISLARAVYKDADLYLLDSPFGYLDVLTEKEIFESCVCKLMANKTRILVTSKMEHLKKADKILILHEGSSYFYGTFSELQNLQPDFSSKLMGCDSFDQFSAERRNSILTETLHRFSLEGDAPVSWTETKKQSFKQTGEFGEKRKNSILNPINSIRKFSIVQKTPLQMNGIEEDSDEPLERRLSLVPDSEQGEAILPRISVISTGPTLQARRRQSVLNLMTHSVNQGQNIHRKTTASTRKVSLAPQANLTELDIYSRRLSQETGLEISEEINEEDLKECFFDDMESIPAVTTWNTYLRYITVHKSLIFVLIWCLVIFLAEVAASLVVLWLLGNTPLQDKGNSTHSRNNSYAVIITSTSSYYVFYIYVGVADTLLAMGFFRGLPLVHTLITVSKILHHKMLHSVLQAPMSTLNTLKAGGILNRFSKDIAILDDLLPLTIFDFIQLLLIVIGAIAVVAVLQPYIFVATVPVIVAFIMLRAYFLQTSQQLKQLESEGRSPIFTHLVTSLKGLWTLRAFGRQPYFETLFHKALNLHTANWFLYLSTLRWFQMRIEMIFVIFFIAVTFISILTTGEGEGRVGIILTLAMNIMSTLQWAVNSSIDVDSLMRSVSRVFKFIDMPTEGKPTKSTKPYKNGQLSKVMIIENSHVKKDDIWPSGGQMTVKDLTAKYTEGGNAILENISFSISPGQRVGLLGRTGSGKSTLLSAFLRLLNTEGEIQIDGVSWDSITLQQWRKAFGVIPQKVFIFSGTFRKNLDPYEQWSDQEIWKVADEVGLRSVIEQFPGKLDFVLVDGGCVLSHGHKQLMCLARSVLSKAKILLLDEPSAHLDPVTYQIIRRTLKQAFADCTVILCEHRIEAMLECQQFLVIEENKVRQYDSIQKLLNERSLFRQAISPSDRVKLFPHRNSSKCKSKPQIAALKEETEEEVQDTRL

In the case of `Cc1cccc(C)c1-c1cc2nc(n1)NS(=N)(=O)c1cccc(c1)C(=O)N1CCN(C(=O)OC(C)(C)C)CC(C1)O2` (centres unmarked), the ring closure, isolated yield in data set [1] (from Cc1cccc(C)c1-c1cc(Cl)nc(NS(=N)(=O)c2cccc(C(=O)N3CCN(C(=O)OC(C)(C)C)CC(O)C3)c2)n1, snar bond, NaH, DMF, 15.3 mM, 1.5 h) is 23%.

For `Cc1cccc(C)c1-c1cc2nc(n1)NS(=O)(=O)c1cccc(c1)C(=O)N1C(c3ncc(OC(C)C)cn3)CCCC(O2)[C@H]1CC(C)C` (some centres unmarked), in data set [1] (setting [3]), the ring closure, isolated yield is 14%.

On to `Cc1cccc(C)c1-c1cc2nc(n1)NS(=O)(=O)c1cccc(c1)C(=O)N1CC(C)(C)CC(O2)C1CC(C)C` (centres unmarked), for which the ring closure, isolated yield came out at 23% in data set [1] (from Cc1cccc(C)c1-c1cc(Cl)nc(NS(=O)(=O)c2cccc(C(=O)N3CC(C)(C)CC(O)C3CC(C)C)c2)n1, snar bond, NaH, DMF, 16.4 mM, 25.0 °C, 16.0 h) and 72% in data set [1] (from Cc1cccc(C)c1-c1cc(Cl)nc(NS(=O)(=O)c2cccc(C(=O)N3CC(C)(C)CC(O)C3CC(C)C)c2)n1, snar bond, NaH, DMF, 17.8 mM, 25.0 °C, 8.0 h). `Cc1cccc(C)c1-c1cc2nc(n1)NS(=O)(=O)c1cccc(c1)C(=O)N1CCN(C(=O)OC(C)(C)C)CC1CO2` (centres unmarked) registered a ring closure, isolated yield in data set [1] (from Cc1cccc(C)c1-c1cc(OCC2CN(C(=O)OC(C)(C)C)CCN2)nc(NS(=O)(=O)c2cccc(C(=O)O)c2)n1, amide bond, HATU/DIEA, DMF, 13.8 mM, 25.0 °C, 2.0 h, 2 steps) of 81%.

`Cc1cccc(C)c1-c1cc2nc(n1)NS(=O)(=O)c1cccc(c1)C(=O)N1CCN(C(=O)OC(C)(C)C)C[C@H](C1)O2` showed a ring closure, isolated yield in data set [1] (from Cc1cccc(C)c1-c1cc(Cl)nc(NS(=O)(=O)c2cccc(C(=O)N3CCN(C(=O)OC(C)(C)C)C[C@@H](O)C3)c2)n1, snar bond, NaH, DMF, 33.1 mM, 0.0 °C, 3.5 h) of 64%. In data set [1] (from Cc1cccc(C)c1-c1cc(Cl)nc(NS(=O)(=O)c2cccc(C(=O)N3CCN(C(=O)OC(C)(C)C)C[C@H]3CO)c2)n1, snar bond, NaH, NMP, 4.4 mM, 70.0 °C, 2.0 h, 2 steps), `Cc1cccc(C)c1-c1cc2nc(n1)NS(=O)(=O)c1cccc(c1)C(=O)N1CCN(C(=O)OC(C)(C)C)C[C@H]1CO2` registered a ring closure, isolated yield of 19%. In data set [1] (from Cc1cccc(C)c1-c1cc(Cl)nc(NS(=O)(=O)c2cccc(C(=O)N3CCN(C(=O)OCc4ccccc4)C[C@@H](O)C3)c2)n1, snar bond, NaH, DMF, 30.4 mM, 5.0 °C, 2.0 h), `Cc1cccc(C)c1-c1cc2nc(n1)NS(=O)(=O)c1cccc(c1)C(=O)N1CCN(C(=O)OCc3ccccc3)C[C@H](C1)O2` registered a ring closure, isolated yield of 44%. For `Cc1cccc(C)c1-c1cc2nc(n1)NS(=O)(=O)c1cccc(c1)C(=O)N1Cc3cc(C(C)(C)C)ccc3C(C1)O2` (centres unmarked), in data set [1] (from Cc1cccc(C)c1-c1cc(OC2CNCc3cc(C(C)(C)C)ccc32)nc(NS(=O)(=O)c2cccc(C(=O)O)c2)n1, amide bond, HATU/NaOtBu, THF/DMF, 25.0 °C, 0.25 h, 3 steps), the ring closure, isolated yield is 14%.

As to `Cc1cccc(C)c1-c1cc2nc(n1)NS(=O)(=O)c1cccc(c1)C(=O)N1CCc3cc(C(C)(C)C)ccc3C(O2)[C@H]1CC(C)C` (single isomer, unassigned) [Compound 237], the EC50 in data set [2] was below 1000 nM. For the same molecule, under “from Cc1cccc(C)c1-c1cc(OC2c3ccc(C(C)(C)C)cc3CCN[C@@H]2CC(C)C)nc(NS(=O)(=O)c2cccc(C(=O)O)c2)n1, amide bond, 13-membered ring, NaOtBu, HATU, THF/DMF, 19.2 mM, 0.0 °C, 0.08 h, 2 steps”, the ring closure, yield after HPLC is 18%. In turn, `Cc1cccc(C)c1-c1cc2nc(n1)NS(=O)(=O)c1cccc(c1)C(=O)N1CCN(C(=O)OCc3ccccc3)CC(O2)[C@H]1C` (single isomer, unassigned; diastereomer 1) returned a ring closure, isolated yield in data set [1] (from Cc1cccc(C)c1-c1cc(Cl)nc(NS(=O)(=O)c2cccc(C(=O)N3CCN(C(=O)OCc4ccccc4)CC(O)[C@H]3C)c2)n1, snar bond, NaH, DMF, 29.4 mM, 0.0 °C, 1.25 h) of 17%.

Consider `Cc1cccc(C)c1-c1cc2nc(n1)NS(=O)(=O)c1cccc(c1)C(=O)N1C(c3ncc(OC(C)C)cn3)CCCC(O2)[C@H]1CC(C)C` (single isomer, unassigned; isomer 1), for which, in data set [1] (from Cc1cccc(C)c1-c1cc(OC2CCCC(c3ncc(OC(C)C)cn3)N[C@@H]2CC(C)C)nc(NS(=O)(=O)c2cccc(C(=O)O)c2)n1, amide bond, CDMT/NMM, DMF, 16.3 mM, 24.0 h), the ring closure, isolated yield was 23%. Turning to `Cc1cccc(C)c1-c1cc2nc(n1)NS(=O)(=O)c1cccc(c1)C(=O)N1C(c3ncc(OC(C)C)cn3)CCCC(O2)[C@H]1CC(C)C` (single isomer, unassigned; isomer 2), the ring closure, isolated yield in data set [1] (setting [3]) turned out to be 27%. Turning to `Cc1cccc(C)c1-c1cc2nc(n1)NS(=O)(=O)c1cccc(c1)C(=O)N1C(c3ncc(OC(C)C)cn3)CCCC(CC(C)C)C1CO2` (single isomer, unassigned; isomer a), the ring closure, isolated yield in data set [1] (from Cc1cccc(C)c1-c1cc(OCC2NC(c3ncc(OC(C)C)cn3)CCCC2CC(C)C)nc(NS(=O)(=O)c2cccc(C(=O)O)c2)n1, amide bond, CDMT/NMM, DMF, 16.2 mM, 40.0 h, 2 steps) turned out to be 35%. For the molecule `Cc1cccc(C)c1-c1cc2nc(n1)NS(=O)(=O)c1cccc(c1)C(=O)N1C[C@@H](CCCC1CC(C)C)O2` (stereo partly drawn) [Compound 181, (16R)-12-(2,6-Dimethylphenyl)-20-(2-methylpropyl)-15-oxa-8λ^6-thia-1,9,11,22-tetraazatetracyclo[14.4.1.13,7.110,14]tricosa-3(23),4,6,10(22),11,13-hexaene-2,8,8-trione], in data set [2], the “Ent. B Max Activity (%)” value is on record as “++ (++ is 30-60%)” and the EC50 is below 1000 nM. Further, the ring closure, yield after HPLC (from Cc1cccc(C)c1-c1cc(Cl)nc(NS(=O)(=O)c2cccc(C(=O)N3C[C@H](O)CCCC3CC(C)C)c2)n1, snar bond, 13-membered ring, NaOtBu, THF, 17.5 mM, 25.0 °C, 24.0 h) was determined as 4%. Take `Cc1cccc(C)c1-c1cc2nc(n1)NS(=O)(=O)c1cccc(c1)C(=O)N1Cc3ccccc3C(CO2)C1` (centres unmarked) [Compound 238, 12-(2,6-Dimethylphenyl)-15-oxa-8λ^6-thia-1,9,11,26-tetraazapentacyclo[15.7.1.13,7.110,14.018,23]heptacosa-3,5,7(27),10(26),11,13,18,20,22-nonaene-2,8,8-trione]: in data set [2], the EC50 is below 1000 nM. This molecule gave a ring closure, yield after HPLC (from Cc1cccc(C)c1-c1cc(OCC2CNCc3ccccc32)nc(NS(=O)(=O)c2cccc(C(=O)O)c2)n1, amide bond, 14-membered ring, HATU/DIEA, DMF/THF, 136.0 mM, 16.0 h, 2 steps) of 5%.
